Results from ChEMBL document CHEMBL3286296, “Design and synthesis of phenylisoxazole derivatives as novel human acrosin inhibitors” (Bioorg Med Chem Lett, 2014).

Target: T1, Acrosin (Homo sapiens, UniProt P10323)
Assay: Inhibition of human acrosin using N-alpha-benzoyl-L-arginine p-nitroanilide as substrate after 3 hrs by spectrophotometry

T1 sequence (P10323 20-42 limits assumed): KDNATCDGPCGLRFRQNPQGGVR
T1 sequence (P10323 43-343 limits assumed): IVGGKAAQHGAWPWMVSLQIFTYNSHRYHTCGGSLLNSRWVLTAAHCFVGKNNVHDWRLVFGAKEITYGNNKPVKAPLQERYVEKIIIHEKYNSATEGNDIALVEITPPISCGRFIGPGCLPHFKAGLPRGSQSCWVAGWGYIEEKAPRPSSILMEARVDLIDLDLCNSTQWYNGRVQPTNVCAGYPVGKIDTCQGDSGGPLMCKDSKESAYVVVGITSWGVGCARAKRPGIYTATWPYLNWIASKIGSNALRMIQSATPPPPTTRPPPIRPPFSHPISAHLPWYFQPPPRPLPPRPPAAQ

Compared with `Cc1ccccc1NC(=O)c1cc(-c2ccc(NC(=N)N)cc2)on1`, `N=C(N)Nc1ccc(-c2cc(C(=O)Nc3ccccc3Br)no2)cc1` is 1.9-fold higher in IC50: 14.4 µM for the first, 27.9 µM for the second.

First: N=C(N)Nc1ccc(-c2cc(C(=O)Nc3ccc(Cl)cc3)no2)cc1
Second: Cc1ccc(NC(=O)c2cc(-c3ccc(NC(=N)N)cc3)on2)cc1
The IC50 of the first is 2.7-fold higher: 26.8 µM for the first, 10.1 µM for the second.

First: COc1ccc(OC)c(NC(=O)c2cc(-c3ccc(NC(=N)N)cc3)on2)c1
Second: COc1ccc(NC(=O)c2cc(-c3ccc(NC(=N)N)cc3)on2)c(OC)c1
The IC50 of the first is 1.6-fold higher: 2.3 µM for the first, 1.4 µM for the second. The second is the more potent here.

`COc1cccc(NC(=O)c2cc(-c3ccc(NC(=N)N)cc3)on2)c1` and `Cc1cccc(NC(=O)c2cc(-c3ccc(NC(=N)N)cc3)on2)c1` are within 1.5-fold of each other in IC50: 6.6 µM for the first, 9.4 µM for the second.

`CC(C)NC(=O)c1cc(-c2ccc(NC(=N)N)cc2)on1` and `CC(CO)NC(=O)c1cc(-c2ccc(NC(=N)N)cc2)on1` (configuration not stated) cannot be ordered by IC50: > 100 µM for the first, > 100 µM for the second.

First: COc1ccccc1NC(=O)c1cc(-c2ccc(NC(=N)N)cc2)on1
Second: N=C(N)Nc1ccc(-c2cc(C(=O)Nc3ccccc3)no2)cc1
The IC50 of the first is 2.9-fold lower: 8.4 µM for the first, 24.6 µM for the second. The first is the more potent here.

Compared with `Cc1cccc(C)c1NC(=O)c1cc(-c2ccc(NC(=N)N)cc2)on1`, `Cc1cccc(NC(=O)c2cc(-c3ccc(NC(=N)N)cc3)on2)c1C` is 2-fold higher in IC50: 5.7 µM for the first, 11.5 µM for the second. The first is the more potent here.

Going from `CCOC(=O)c1cc(-c2ccc(NC(=O)c3ccc(F)cc3)cc2)on1` to `CCOC(=O)c1cc(-c2ccc(NC(=O)c3ccc(Cl)cc3)cc2)on1`, the IC50 rises from 140 µM to 380 µM (2.7-fold).

Going from `N=C(N)Nc1ccc(-c2cc(C(=O)Nc3cccc(Br)c3)no2)cc1` to `N=C(N)Nc1ccc(-c2cc(C(=O)Nc3cccc(Cl)c3)no2)cc1`, the IC50 rises from 14.4 µM to 25.4 µM (1.8-fold).

`N=C(N)Nc1ccc(-c2cc(C(=O)Nc3cccc4ccccc34)no2)cc1` and `N=C(N)Nc1ccc(-c2cc(C(=O)Nc3ccc(F)cc3)no2)cc1` are within 1.5-fold of each other in IC50: 29.9 µM for the first, 20.5 µM for the second.

Compared with `N#Cc1ccc(NC(=O)c2cc(-c3ccc(NC(=N)N)cc3)on2)cc1`, `CCOc1ccc(NC(=O)c2cc(-c3ccc(NC(=N)N)cc3)on2)cc1` is 3.7-fold lower in IC50: 23.9 µM for the first, 6.4 µM for the second.

Compared with `N=C(N)Nc1ccc(-c2cc(C(=O)Nc3ccc(C(F)(F)F)cc3)no2)cc1`, `CC(C)(C)c1ccc(NC(=O)c2cc(-c3ccc(NC(=N)N)cc3)on2)cc1` is 2.6-fold lower in IC50: 20.3 µM for the first, 7.8 µM for the second.

Compared with `Cc1ccnc(NC(=O)c2cc(-c3ccc(NC(=N)N)cc3)on2)c1`, `Cc1cc(C)cc(NC(=O)c2cc(-c3ccc(NC(=N)N)cc3)on2)c1` is 1.8-fold lower in IC50: 21.4 µM for the first, 12.1 µM for the second.

Going from `CCOC(=O)c1cc(-c2ccc(NC(=O)c3ccccc3)cc2)on1` to `CCOC(=O)c1cc(-c2ccc(NC(=O)c3ccccc3Cl)cc2)on1`, the IC50 falls from 460 µM to 60 µM (7.7-fold). The second is the more potent here.

First: CCOC(=O)c1ccc(NC(=O)c2cc(-c3ccc(NC(=N)N)cc3)on2)cc1
Second: CCOC(=O)c1cc(-c2ccc(NC(=O)c3ccc(Cl)c(Cl)c3)cc2)on1
The IC50 of the first is 26-fold lower: 9.3 µM for the first, 240 µM for the second.

Tested on: not listed separately
Assay: Inhibition of pig trypsin
Set-up: species or system Sus scrofa

For `COc1ccc(NC(=O)c2cc(-c3ccc(NC(=N)N)cc3)on2)c(OC)c1`, the IC50 was 4200 µM.

Target: T1, Acrosin
Assay: Ratio of ISO-1 IC50 to compound IC50 for human acrosin using N-alpha-benzoyl-L-arginine p-nitroanilide as substrate after 3 hrs by spectrophotometry

Work on `CCOC(=O)c1cc(-c2ccc(NC(=O)c3ccccc3Cl)cc2)on1` yielded a Ratio IC50 of 6.
